Test results from patent US10899786B2, “Nucleoside phosphate compound and preparation method and use thereof” (SICHUAN KELUN-BIOTECH BIOPHARMACEUTICAL CO., LTD., priority 2016, dated 2021).

Key:
[1] = male, ICR, mouse, in vivo, po, 10 mg/kg
CYP1A2 = target: T1, CYP1A2 (Homo sapiens, UniProt P05177); assay: CYP inhibition test, liver microsome incubation; type: in vitro ADME; conditions: liver microsomes, probe phenacetin
T1 construct: from tissue; host or cells: liver microsomes
T1 sequence (P05177 1-516): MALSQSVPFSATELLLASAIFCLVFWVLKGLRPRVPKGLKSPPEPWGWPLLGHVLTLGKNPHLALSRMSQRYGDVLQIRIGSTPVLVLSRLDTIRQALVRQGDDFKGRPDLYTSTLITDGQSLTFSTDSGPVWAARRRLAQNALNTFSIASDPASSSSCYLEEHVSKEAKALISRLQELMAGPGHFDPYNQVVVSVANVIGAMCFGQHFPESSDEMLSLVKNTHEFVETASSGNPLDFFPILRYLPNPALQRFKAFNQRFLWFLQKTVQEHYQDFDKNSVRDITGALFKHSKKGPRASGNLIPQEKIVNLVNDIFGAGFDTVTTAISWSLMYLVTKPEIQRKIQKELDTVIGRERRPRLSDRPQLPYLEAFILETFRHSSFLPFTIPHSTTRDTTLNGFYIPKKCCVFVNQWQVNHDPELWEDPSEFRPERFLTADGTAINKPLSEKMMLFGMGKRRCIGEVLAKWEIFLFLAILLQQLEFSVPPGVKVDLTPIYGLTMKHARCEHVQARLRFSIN
Procedure: (§1) The compound was dissolved in DMSO to prepare a 10 mM stock solution. The stock solution was further diluted into a series of working solutions of 5, 1.5, 0.5, 0.15, 0.05, 0.015 and 0.005 mM with a mixed solvent of DMSO:methanol=1:1.
(§2) The substrates were each dissolved in DMSO to prepare stock solutions of the corresponding concentrations.
(§3) The positive controls were each dissolved in DMSO to prepare stock solutions of the corresponding concentrations. They were then diluted with methanol to the corresponding concentrations of working solutions.
(§4) The protein concentration of liver microsomes in the reaction system was 0.2 mg/mL, and the coenzyme NADPH was 1.0 mM. The incubation was carried out in a water bath at 37° C. The reaction was quenched and subjected to conventional procedures for LC-MS/MS analysis.

CYP2B6 = target: T2, CYP2B6 (Homo sapiens, UniProt P20813); assay: CYP inhibition test, liver microsome incubation; type: in vitro ADME; conditions: liver microsomes, probe bupropion
T2 construct: The protein concentration of liver microsomes in the reaction system was 0.2 mg/mL; from tissue; host or cells: liver microsomes
T2 sequence (P20813 1-491): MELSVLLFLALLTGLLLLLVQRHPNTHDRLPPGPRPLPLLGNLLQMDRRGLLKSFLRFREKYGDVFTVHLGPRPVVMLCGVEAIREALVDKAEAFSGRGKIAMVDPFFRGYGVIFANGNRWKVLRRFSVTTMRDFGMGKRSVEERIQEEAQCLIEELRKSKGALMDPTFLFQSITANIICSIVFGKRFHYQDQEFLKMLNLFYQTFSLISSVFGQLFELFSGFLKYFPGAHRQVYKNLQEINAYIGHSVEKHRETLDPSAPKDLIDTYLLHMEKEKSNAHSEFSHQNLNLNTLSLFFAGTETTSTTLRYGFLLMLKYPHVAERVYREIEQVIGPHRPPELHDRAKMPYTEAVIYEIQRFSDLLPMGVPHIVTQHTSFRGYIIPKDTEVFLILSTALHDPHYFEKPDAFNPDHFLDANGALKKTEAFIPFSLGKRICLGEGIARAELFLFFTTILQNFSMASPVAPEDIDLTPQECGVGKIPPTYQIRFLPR
Procedure: as §1, §2, §3, §4

CYP2C19 = target: T3, CYP2C19 (Homo sapiens, UniProt P33261); assay: CYP inhibition test, liver microsome incubation; type: in vitro ADME; conditions: liver microsomes, probe methoin
T3 construct: The protein concentration of liver microsomes in the reaction system was 0.2 mg/mL; from tissue; host or cells: liver microsomes
T3 sequence (P33261 whole entry): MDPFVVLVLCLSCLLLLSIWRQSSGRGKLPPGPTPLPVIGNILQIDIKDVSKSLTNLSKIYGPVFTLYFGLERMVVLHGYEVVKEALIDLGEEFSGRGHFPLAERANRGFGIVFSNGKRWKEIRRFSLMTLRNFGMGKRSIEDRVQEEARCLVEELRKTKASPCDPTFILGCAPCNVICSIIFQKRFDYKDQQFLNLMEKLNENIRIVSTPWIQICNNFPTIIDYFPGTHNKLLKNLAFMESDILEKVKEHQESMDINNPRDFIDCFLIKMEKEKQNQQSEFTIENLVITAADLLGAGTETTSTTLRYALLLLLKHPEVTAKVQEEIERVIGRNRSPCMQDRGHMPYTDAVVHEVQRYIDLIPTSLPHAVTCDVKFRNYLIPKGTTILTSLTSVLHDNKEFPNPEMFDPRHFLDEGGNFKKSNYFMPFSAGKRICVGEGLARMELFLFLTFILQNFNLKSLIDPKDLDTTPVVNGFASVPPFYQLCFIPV
Procedure: as §1, §2, §3, §4

CYP2C8 = target: T4, CYP2C8 (Homo sapiens, UniProt P10632); assay: CYP inhibition test, liver microsome incubation; type: in vitro ADME; conditions: liver microsomes, probe amodiaquine
T4 construct: from tissue; host or cells: liver microsomes
T4 sequence (P10632 1-490): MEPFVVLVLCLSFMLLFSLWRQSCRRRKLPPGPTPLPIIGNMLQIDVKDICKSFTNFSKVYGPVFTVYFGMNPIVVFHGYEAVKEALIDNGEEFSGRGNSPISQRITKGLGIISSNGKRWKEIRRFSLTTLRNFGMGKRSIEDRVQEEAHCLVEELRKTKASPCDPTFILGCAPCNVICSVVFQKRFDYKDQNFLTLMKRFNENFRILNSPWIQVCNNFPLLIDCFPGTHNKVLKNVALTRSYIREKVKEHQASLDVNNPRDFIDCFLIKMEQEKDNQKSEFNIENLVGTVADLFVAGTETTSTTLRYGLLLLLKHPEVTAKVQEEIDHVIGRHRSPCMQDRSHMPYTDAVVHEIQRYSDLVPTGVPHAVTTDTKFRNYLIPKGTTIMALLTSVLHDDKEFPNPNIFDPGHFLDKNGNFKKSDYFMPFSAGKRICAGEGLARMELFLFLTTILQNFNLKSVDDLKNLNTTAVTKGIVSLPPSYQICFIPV
Procedure: as §1, §2, §3, §4

CYP2C9 = target: T5, CYP2C9 (Homo sapiens, UniProt P11712); assay: CYP inhibition test, liver microsome incubation; type: in vitro ADME; conditions: liver microsomes, probe diclofenac
T5 construct: The protein concentration of liver microsomes in the reaction system was 0.2 mg/mL; from tissue; host or cells: liver microsomes
T5 sequence (P11712 whole entry): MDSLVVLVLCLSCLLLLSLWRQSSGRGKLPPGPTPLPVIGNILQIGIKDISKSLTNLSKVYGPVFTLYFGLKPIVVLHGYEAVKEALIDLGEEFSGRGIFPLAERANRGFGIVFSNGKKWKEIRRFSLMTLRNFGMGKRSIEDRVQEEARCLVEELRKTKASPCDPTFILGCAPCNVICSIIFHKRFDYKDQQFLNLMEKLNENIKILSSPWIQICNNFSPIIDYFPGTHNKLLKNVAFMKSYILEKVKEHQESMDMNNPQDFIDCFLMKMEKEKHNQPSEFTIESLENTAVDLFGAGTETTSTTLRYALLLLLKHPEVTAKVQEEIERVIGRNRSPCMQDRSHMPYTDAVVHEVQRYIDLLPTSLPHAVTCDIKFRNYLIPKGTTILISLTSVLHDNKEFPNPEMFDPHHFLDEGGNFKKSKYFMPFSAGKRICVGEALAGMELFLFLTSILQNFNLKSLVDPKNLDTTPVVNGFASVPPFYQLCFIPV
Procedure: as §1, §2, §3, §4

CYP2D6 = target: T6, CYP2D6 (Homo sapiens, UniProt P10635); assay: CYP inhibition test, liver microsome incubation; type: in vitro ADME; conditions: liver microsomes, probe dextromethorphan
T6 construct: from tissue; host or cells: liver microsomes
T6 sequence (P10635 whole entry): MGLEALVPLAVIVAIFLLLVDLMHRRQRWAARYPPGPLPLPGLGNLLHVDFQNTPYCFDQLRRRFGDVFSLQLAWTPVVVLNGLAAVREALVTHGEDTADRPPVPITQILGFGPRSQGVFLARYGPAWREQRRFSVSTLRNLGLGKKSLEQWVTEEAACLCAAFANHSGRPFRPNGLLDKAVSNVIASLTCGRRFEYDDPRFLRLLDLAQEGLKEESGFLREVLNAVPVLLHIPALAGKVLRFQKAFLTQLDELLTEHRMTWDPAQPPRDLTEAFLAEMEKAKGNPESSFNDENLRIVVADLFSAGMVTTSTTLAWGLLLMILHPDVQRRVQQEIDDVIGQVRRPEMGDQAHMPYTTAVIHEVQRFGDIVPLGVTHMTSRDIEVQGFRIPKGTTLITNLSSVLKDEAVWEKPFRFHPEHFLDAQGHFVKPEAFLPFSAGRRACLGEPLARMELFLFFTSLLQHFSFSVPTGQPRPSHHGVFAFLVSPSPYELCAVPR
Procedure: as §1, §2, §3, §4

CYP3A4 = target: T7, CYP3A4 (Homo sapiens, UniProt P08684); assay: CYP inhibition test, liver microsome incubation; type: in vitro ADME; conditions: liver microsomes
T7 construct: The protein concentration of liver microsomes in the reaction system was 0.2 mg/mL; from tissue; host or cells: liver microsomes
T7 sequence (P08684 whole entry): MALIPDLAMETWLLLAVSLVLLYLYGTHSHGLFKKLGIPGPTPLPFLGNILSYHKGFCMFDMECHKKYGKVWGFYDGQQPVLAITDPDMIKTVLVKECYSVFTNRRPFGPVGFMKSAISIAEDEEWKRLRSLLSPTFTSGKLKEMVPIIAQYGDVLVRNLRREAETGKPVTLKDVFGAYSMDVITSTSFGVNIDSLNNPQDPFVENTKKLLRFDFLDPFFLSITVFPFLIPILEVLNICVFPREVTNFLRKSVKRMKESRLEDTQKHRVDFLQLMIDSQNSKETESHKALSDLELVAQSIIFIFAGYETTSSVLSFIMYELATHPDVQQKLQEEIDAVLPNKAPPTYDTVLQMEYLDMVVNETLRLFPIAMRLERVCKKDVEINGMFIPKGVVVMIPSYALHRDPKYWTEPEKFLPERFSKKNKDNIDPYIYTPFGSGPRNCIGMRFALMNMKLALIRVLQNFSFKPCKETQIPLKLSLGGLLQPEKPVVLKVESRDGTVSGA
Procedure: as §1, §2, §3, §4

CYP450 enzymes = assay: CYP inhibition test, overall statement on the eight CYP450 enzymes; type: in vitro ADME; conditions: all the eight CYP450 enzymes
Procedure: as §1, §2, §3, §4
The risk of drug interaction is little, and thus higher safety exists. Other compounds of the invention all have similar safety.

hepatitis B virus (HBV) = assay: In vitro pharmacological test: HBV DNA replication in HepG2.2.15 cells; type: cell-based
Procedure: The inhibitory effect of the compounds of the invention on hepatitis B virus (HBV) was tested. The cytotoxicity of the compounds of the invention and the effect thereof on viral (HBV) nucleic acid (DNA) replication levels were tested at cellular level.
HepG2.2.15 cells in logarithmic growth phase were seeded in a 96-well plate at a cell concentration of 40 cells/μL, and were incubate for 3 days at 37° C. in a 5% CO2 incubator. The medium was replaced with new medium (200 μL/well) before adding the compound. The concentration of each compound of the examples in the stock solutions was 200 μM. The highest concentration was 200 μM, and dilution with DMSO lead to a number of different concentrations. 1 μL of the test compound was placed in the corresponding medium well, and the final test concentrations of the compounds were 0.06, 0.24, 0.98, 3.9, 15.6, 62.5, 250, 1000 nM (for calculating the medium effective concentration (EC50)).

Question: With `C[C@H](Cn1cnc2c(N)ncnc21)OCP(=O)(O)O` (single isomer, unassigned) [Metabolite 1 of Compound 22 - Isomer B of Example 16] as the compound, how does the “concentration of Metabolite 1 in liver relative to the plasma concentration” value [1] read?
Answer: The value was 21 times.

Question: For `C[C@H](Cn1cnc2c(N)ncnc21)OCP(=O)(NCCOCc1ccccc1)Oc1ccccc1` (mixture of isomers) [Ex. 15, ((((R)-1-(6-amino-9H-purin-9-yl)propan-2-yl)oxy)methyl)-phenoxy-N-(2-(benzyloxy)ethyl)phosphoramide], which IC50 (CYP1A2) is on record?
Answer: Its IC50 is greater than 50 µM.

Question: And the IC50 (CYP2B6)?
Answer: Its IC50 is greater than 50 µM.

Question: What about the IC50 (CYP2C19) of the same compound?
Answer: The IC50 was greater than 50 µM.

Question: And the IC50 (CYP2C8)?
Answer: The IC50 was greater than 50 µM.

Question: And the IC50 (CYP2C9)?
Answer: The IC50 was greater than 50 µM.

Question: And the IC50 (CYP2D6)?
Answer: Its IC50 is greater than 50 µM.

Question: What about the IC50 (CYP3A4; probe midazolam) of the same compound?
Answer: The IC50 was 11.6 µM.

Question: What about the IC50 (CYP3A4; probe testosterone) of the same compound?
Answer: Its IC50 is 13.3 µM.

Question: And the “inhibitory effect on the eight CYP450 enzymes (in words)” value (CYP450 enzymes)?
Answer: The value was “no inhibitory effect”.

Question: And the EC50 (hepatitis B virus (HBV))?
Answer: Its EC50 is 0.0547 ± 0.0264 µM.
